Here are results for three molecules from ChEMBL document CHEMBL1649359, “Izumiphenazines A-C: isolation and structure elucidation of phenazine derivatives from Streptomyces sp. IFM 11204” (2010).

Assay type in all cases: functional
The subject of assay [1] is AGS. Nature of the assay: Induction of apoptosis in TRAIL-resistant human AGS cells assessed as decrease in cell viability at 40 uM after 24 hrs by fluorometric microculture cytotoxic assay in presence of TRAIL relative to in absence of TRAIL.
In assay [2] the test system is AGS. Briefly: Induction of apoptosis in TRAIL-resistant human AGS cells assessed as decrease in cell viability at 30 uM after 24 hrs by fluorometric microculture cytotoxic assay in presence of TRAIL relative to in absence of TRAIL.
Assay [3] relates to AGS. Nature of the assay: Induction of apoptosis in TRAIL-resistant human AGS cells assessed as decrease in cell viability at 20 uM after 24 hrs by fluorometric microculture cytotoxic assay in presence of TRAIL relative to in absence of TRAIL.

`O=C(O)c1cc2c(c3nc4c(O)cccc4nc13)[C@@H]1Cc3nc4cccc(O)c4nc3[C@@H](O)[C@@H]1O2` [IZUMIPHENAZINE A]: the Activity with AGS [1] was 78%.

For `O=C1C[C@H](c2c(O)cc(C(=O)O)c3nc4cccc(O)c4nc23)Cc2nc3cccc(O)c3nc21` [IZUMIPHENAZINE B], the Activity in the assay with AGS [2] came out at 30%.

In the case of `CN(c1ccc(C(=O)O)cc1)c1cccc2nc3c(O)cccc3nc12` [IZUMIPHENAZINE C], the Activity with AGS [3] is recorded as 26%.
